Results as given in PubChem BioAssay (NCI).
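48-hour exposure; five concentrations; linearly interpolated endpoints. TGI denotes the concentration required for complete inhibition of growth.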

Legend:
Assay in all cases: NCI-60 cell line screen, 48 h
[1] = system: 786-0 renal
[2] = system: A498 renal
[3] = system: A549 NSCLC
[4] = system: ACHN renal
[5] = system: CAKI-1 renal
[6] = system: CCRF-CEM leukemia
[7] = system: COLO 205 colon
[8] = system: DU-145 prostate
[9] = system: EKVX NSCLC
[10] = system: HCC-2998 colon
[11] = system: HCT-116 colon
[12] = system: HCT-15 colon
[13] = system: HL-60(TB) leukemia
[14] = system: HOP-62 NSCLC
[15] = system: HS 578T breast
[16] = system: HT29 colon
[17] = system: IGROV1 ovarian
[18] = system: K-562 leukemia
[19] = system: KM12 colon
[20] = system: LOX IMVI melanoma
[21] = system: M14 melanoma
[22] = system: MALME-3M melanoma
[23] = system: MCF7 breast
[24] = system: MDA-MB-231 breast
[25] = system: MDA-MB-435
[26] = system: MDA-N
[27] = system: MOLT-4 leukemia
[28] = system: NCI-H226 lung
[29] = system: NCI-H23 lung
[30] = system: NCI-H460 lung
[31] = system: NCI/ADR-RES ovarian
[32] = system: OVCAR-4 ovarian
[33] = system: OVCAR-8 ovarian
[34] = system: PC-3 prostate
[35] = system: RPMI-8226 leukemia
[36] = system: SF-268 CNS
[37] = system: SF-295 CNS
[38] = system: SF-539 CNS
[39] = system: SK-MEL-2 melanoma
[40] = system: SK-MEL-28 melanoma
[41] = system: SK-MEL-5 melanoma
[42] = system: SK-OV-3 ovarian
[43] = system: SN12C renal
[44] = system: SNB-19 CNS
[45] = system: SNB-75 CNS
[46] = system: SR leukemia
[47] = system: SW-620 colon
[48] = system: T-47D breast
[49] = system: TK-10 renal
[50] = system: U251 CNS
[51] = system: UACC-257 melanoma
[52] = system: UACC-62 melanoma
[53] = system: UO-31 renal
[54] = system: RXF 393 renal
[55] = system: HOP-92 NSCLC
[56] = system: NCI-H522 lung
[57] = system: OVCAR-3 ovarian
[58] = system: OVCAR-5 ovarian

O=C(/C=C/c1cccs1)c1ccc([N+](=O)[O-])cc1
TGI [1]: > 100 µM
TGI [2]: > 100 µM
TGI [3]: > 100 µM
TGI [4]: > 100 µM
TGI [5]: > 100 µM
TGI [6]: > 100 µM
TGI [7]: > 100 µM
TGI [8]: > 100 µM
TGI [9]: > 100 µM
TGI [10]: > 100 µM
TGI [11]: > 100 µM
TGI [12]: > 100 µM
TGI [13]: > 100 µM
TGI [14]: > 100 µM
TGI [15]: > 100 µM
TGI [16]: > 100 µM
TGI [17]: > 100 µM
TGI [18]: > 100 µM
TGI [19]: > 100 µM
TGI [20]: > 100 µM
TGI [21]: > 100 µM
TGI [22]: > 100 µM
TGI [23]: > 100 µM
TGI [24]: > 100 µM
TGI [25]: > 100 µM
TGI [26]: > 100 µM
TGI [27]: > 100 µM
TGI [28]: > 100 µM
TGI [29]: > 100 µM
TGI [30]: > 100 µM
TGI [31]: > 100 µM
TGI [32]: > 100 µM
TGI [33]: > 100 µM
TGI [34]: > 100 µM
TGI [35]: > 100 µM
TGI [36]: > 100 µM
TGI [37]: > 100 µM
TGI [38]: > 100 µM
TGI [39]: > 100 µM
TGI [40]: > 100 µM
TGI [41]: > 100 µM
TGI [42]: > 100 µM
TGI [43]: > 100 µM
TGI [44]: > 100 µM
TGI [45]: > 100 µM
TGI [46]: > 100 µM
TGI [47]: > 100 µM
TGI [48]: > 100 µM
TGI [49]: > 100 µM
TGI [50]: > 100 µM
TGI [51]: > 100 µM
TGI [52]: > 100 µM
TGI [53]: > 100 µM

CSc1nc(C)c(CCOC(C)=O)c(N=P(c2ccccc2)(c2ccccc2)c2ccccc2)n1
TGI [1]: > 10 µM
TGI [3]: > 10 µM
TGI [5]: > 10 µM
TGI [6]: > 10 µM
TGI [8]: > 10 µM
TGI [9]: > 10 µM
TGI [10]: > 10 µM
TGI [12]: > 10 µM
TGI [13]: > 10 µM
TGI [14]: > 10 µM
TGI [16]: > 10 µM
TGI [17]: > 10 µM
TGI [18]: > 10 µM
TGI [19]: > 10 µM
TGI [20]: > 10 µM
TGI [21]: > 10 µM
TGI [22]: > 10 µM
TGI [23]: > 10 µM
TGI [24]: > 10 µM
TGI [26]: > 10 µM
TGI [27]: 6.43 µM
TGI [29]: > 10 µM
TGI [33]: > 10 µM
TGI [34]: 9.37 µM
TGI [35]: > 10 µM
TGI [54]: > 10 µM
TGI [36]: > 10 µM
TGI [37]: > 10 µM
TGI [40]: > 10 µM
TGI [41]: > 10 µM
TGI [42]: > 10 µM
TGI [43]: > 10 µM
TGI [45]: > 10 µM
TGI [46]: 7.83 µM
TGI [47]: > 10 µM
TGI [48]: > 10 µM
TGI [49]: > 10 µM
TGI [51]: > 10 µM
TGI [52]: > 10 µM

NC(N)=N/N=C/c1c(-c2ccc(Cl)cc2)nc2sc(Cl)cn12
TGI [2]: 3.17 µM
TGI [4]: > 100 µM
TGI [5]: 2.82 µM
TGI [7]: 2.12 µM
TGI [8]: 3.37 µM
TGI [12]: 2.69 µM
TGI [14]: 3.25 µM
TGI [55]: 3.17 µM
TGI [17]: 2.04 µM
TGI [19]: 2.2 µM
TGI [24]: 3.29 µM
TGI [25]: 2.57 µM
TGI [26]: 3.13 µM
TGI [28]: 3.36 µM
TGI [29]: 2.48 µM
TGI [30]: 3.21 µM
TGI [56]: 3.47 µM
TGI [31]: 3.31 µM
TGI [57]: 2.88 µM
TGI [32]: 2.18 µM
TGI [58]: 3.1 µM
TGI [33]: 2.53 µM
TGI [34]: > 100 µM
TGI [37]: 3.18 µM
TGI [38]: 2.53 µM
TGI [40]: 3.21 µM
TGI [41]: 2.97 µM
TGI [42]: 3.34 µM
TGI [45]: 2.72 µM
TGI [47]: 2.28 µM
TGI [48]: 2.64 µM
TGI [49]: 3.1 µM
TGI [51]: 3.2 µM
TGI [52]: 3.25 µM
TGI [53]: 3.1 µM

CC(=O)OC1CC[C@@]2(C)C(=CC[C@@H]3[C@@H]2CC[C@]2(C)C(OC(C)=O)[C@H](n4ccnc4)C[C@@H]32)C1 (stereo not given in full)
TGI [1]: > 100 µM
TGI [2]: > 100 µM
TGI [3]: > 100 µM
TGI [4]: > 100 µM
TGI [5]: > 100 µM
TGI [6]: 37.1 µM
TGI [7]: 34.4 µM
TGI [8]: > 100 µM
TGI [9]: > 100 µM
TGI [11]: 31.2 µM
TGI [12]: 30.6 µM
TGI [13]: 35.6 µM
TGI [55]: > 100 µM
TGI [15]: > 100 µM
TGI [16]: 23.7 µM
TGI [17]: > 100 µM
TGI [18]: 86.3 µM
TGI [19]: 30.4 µM
TGI [20]: 37.7 µM
TGI [21]: 31.2 µM
TGI [22]: 28.3 µM
TGI [23]: 33.2 µM
TGI [24]: > 100 µM
TGI [25]: 31.6 µM
TGI [26]: 46.6 µM
TGI [27]: 30.3 µM
TGI [28]: > 100 µM
TGI [29]: > 100 µM
TGI [30]: 33.4 µM
TGI [56]: 40.9 µM
TGI [31]: > 100 µM
TGI [32]: 46.6 µM
TGI [58]: > 100 µM
TGI [33]: 44.2 µM
TGI [34]: 39.5 µM
TGI [35]: 55.2 µM
TGI [54]: > 100 µM
TGI [36]: > 100 µM
TGI [37]: > 100 µM
TGI [38]: 29.8 µM
TGI [39]: 34.2 µM
TGI [40]: 31.5 µM
TGI [41]: 30.3 µM
TGI [43]: > 100 µM
TGI [44]: > 100 µM
TGI [45]: > 100 µM
TGI [46]: 36.7 µM
TGI [47]: > 100 µM
TGI [49]: > 100 µM
TGI [50]: > 100 µM
TGI [51]: 31.1 µM
TGI [52]: 30.3 µM
TGI [53]: > 100 µM

NC(N)=N/N=C\c1c(-c2ccccc2)nc2sccn12
TGI [1]: 27.1 µM
TGI [2]: 33.6 µM
TGI [3]: 31.8 µM
TGI [4]: 30.6 µM
TGI [5]: 29.6 µM
TGI [6]: 73.3 µM
TGI [7]: 24.6 µM
TGI [8]: 33 µM
TGI [9]: 28.1 µM
TGI [10]: 16.8 µM
TGI [11]: 28.5 µM
TGI [12]: 29.8 µM
TGI [13]: 53.3 µM
TGI [14]: 29.1 µM
TGI [55]: 27.4 µM
TGI [15]: 34.5 µM
TGI [16]: 28.6 µM
TGI [17]: 27 µM
TGI [18]: > 100 µM
TGI [19]: 27.5 µM
TGI [20]: 30.1 µM
TGI [22]: 30 µM
TGI [24]: 27.3 µM
TGI [25]: 29.2 µM
TGI [26]: 27.1 µM
TGI [27]: 51.7 µM
TGI [28]: 33.1 µM
TGI [29]: 25.4 µM
TGI [30]: 29.7 µM
TGI [56]: 24.6 µM
TGI [31]: 34.9 µM
TGI [32]: 29.5 µM
TGI [58]: 30.6 µM
TGI [33]: 30.9 µM
TGI [34]: 28.5 µM
TGI [35]: 49 µM
TGI [54]: 26.3 µM
TGI [36]: 29.9 µM
TGI [37]: 27.9 µM
TGI [38]: 30.2 µM
TGI [39]: 28.6 µM
TGI [40]: 29.1 µM
TGI [41]: 29.2 µM
TGI [42]: 33.2 µM
TGI [43]: 28.8 µM
TGI [44]: 27.3 µM
TGI [45]: 24.8 µM
TGI [46]: > 100 µM
TGI [47]: 28.1 µM
TGI [48]: 29.1 µM
TGI [49]: 31.2 µM
TGI [50]: 28.5 µM
TGI [51]: 26.3 µM
TGI [52]: 29.4 µM
TGI [53]: 31.6 µM
